Consider eight molecules from US8119660B2, “Small-molecule inhibitors of the androgen receptor” (The Regents of the University of California, priority 2007, dated 2012).

Numbering of substitutions follows the chain as printed. “Also recorded” adds a separate entry of the source.

In one assay the test system is prostate glands of mice. As to the kind of experiment: Prostate weight in treated male mice. The assay is classed as in vivo. The following applies: 5 times per week for four weeks, BiC 100 mg/kg PO, PP 1 mg/kg IP, or the combination. On the procedure: FIG. 7. […] As a positive control, nine mice were treated with castration for four weeks. Prostate glands were harvested and wet weights determined. […] Error bars represent the standard error of the mean (S.E.M.).
Animals were treated 5 times per week for four weeks. At the end of the study period, animals were sacrificed and prostate tissue weighed. After weighing, the tissue was divided in half for pathological and genetic studies. […] (FIG. 7).

Assay [1] concerns endogenous AR-regulated gene expression, LAPC4 cells. As to the kind of experiment: qRT-PCR of androgen-responsive genes in LAPC4 cells. The assay is classed as cell-based, human. The following applies: No DHT = 1, 3 nM DHT alone or with 1 uM BIC, 100 nM PP or 100 nM HH. Here is the method:
(§1) LAPC4 and LNCaP cells were grown in the presence or absence of 3 nM DHT in charcoal-stripped media, with or without the inhibitors. RNA was harvested using an RNAeasy kit (Qiagen) and reverse transcribed (MMLV-RT, Invitrogen). Real-time PCR was carried out on a 7300 Real Time PCR System (Applied Biosystems) using SYBR green as the detecting dye and Rox as the reference dye. The androgen responsive genes kalikrein 3, or PSA (KLK3) [Cleutjens, K. B., et al., Two androgen response regions cooperate in steroid hormone regulated activity of the prostate-specific antigen promoter. J Biol Chem, 1996. 271(11): p. 6379-88; Nelson, P. S., et al., The program of androgen-responsive genes in neoplastic prostate epithelium. Proc Natl Acad Sci USA, 2002. 99(18): p. 11890-5), metalloproteinase 16 (MMP16) (Nelson, P. S., et al., The program of androgen-responsive genes in neoplastic prostate epithelium. Proc Natl Acad Sci USA, 2002. 99(18): p. 11890-5), transmembrane protease serine 2 (TMPRSS2) (Nelson, P. S., et al., The program of androgen-responsive genes in neoplastic prostate epithelium. Proc Natl Acad Sci USA, 2002. 99(18): p. 11890-5; […] Vaarala, M. H., et al., Expression of transmembrane serine protease TMPRSS2 in mouse and human tissues. J Pathol, 2001. 193(1): p. 134-40), FK506-binding immunophilin 51 (FKBP51) (Nelson, P. S., et al., The program of androgen-responsive genes in neoplastic prostate epithelium. Proc Natl Acad Sci USA, 2002. 99(18): p. 11890-5; Amler, L. C., et al., Dysregulated expression of androgen-responsive and nonresponsive genes in the androgen-independent prostate cancer xenograft model CWR22-R1. Cancer Res, 2000. 60(21): p. 6134-41; Velasco, A. M., et al., Identification and validation of novel androgen-regulated genes in prostate cancer. Endocrinology, 2004. 145(8): p. 3913-24; Magee, J. A., et al., Direct, androgen receptor-mediated regulation of the FKBP5 gene via a distal enhancer element. Endocrinology, 2006. 147(1): p. 590-8), G-protein coupled receptor RDC1 homolog, or chemokine orphan receptor 1 (RDC-1) (Nelson, P. S., et al., The program of androgen-responsive genes in neoplastic prostate epithelium. Proc Natl Acad Sci USA, 2002. 99(18): p. 11890-5), NK homeobox family member 3 (Nk×3.1) (Nelson, P. S., et al., The program of androgen-responsive genes in neoplastic prostate epithelium. Proc Natl Acad Sci USA, 2002. 99(18): p. 11890-5; Bieberich, C. J., et al., Prostate-specific and androgen-dependent expression of a novel homeobox gene. J Biol Chem, 1996. 271(50): p. 31779-82; […]) were all normalized to the transcription of the housekeeping ribosomal gene (RPL19). All samples were done in triplicate and separately normalized.

Assay [2] has as its system endogenous AR-regulated gene expression, LNCaP cells. As to the kind of experiment: qRT-PCR of androgen-responsive genes in LNCaP cells. The assay is classed as cell-based, human. The following applies: No DHT = 1, 3 nM DHT alone or with 1 uM BIC, 100 nM PP or 100 nM HH. Here is the method: as §1
For assay [3], the target named is T1, endogenous AR with a mutation (T877A), LNCaP cells (Homo sapiens, UniProt P10275, T878A).
T1 construct: that each express endogenous AR; endogenous in cells; host or cells: LNCaP
T1 sequence (P10275 1-920 T878A): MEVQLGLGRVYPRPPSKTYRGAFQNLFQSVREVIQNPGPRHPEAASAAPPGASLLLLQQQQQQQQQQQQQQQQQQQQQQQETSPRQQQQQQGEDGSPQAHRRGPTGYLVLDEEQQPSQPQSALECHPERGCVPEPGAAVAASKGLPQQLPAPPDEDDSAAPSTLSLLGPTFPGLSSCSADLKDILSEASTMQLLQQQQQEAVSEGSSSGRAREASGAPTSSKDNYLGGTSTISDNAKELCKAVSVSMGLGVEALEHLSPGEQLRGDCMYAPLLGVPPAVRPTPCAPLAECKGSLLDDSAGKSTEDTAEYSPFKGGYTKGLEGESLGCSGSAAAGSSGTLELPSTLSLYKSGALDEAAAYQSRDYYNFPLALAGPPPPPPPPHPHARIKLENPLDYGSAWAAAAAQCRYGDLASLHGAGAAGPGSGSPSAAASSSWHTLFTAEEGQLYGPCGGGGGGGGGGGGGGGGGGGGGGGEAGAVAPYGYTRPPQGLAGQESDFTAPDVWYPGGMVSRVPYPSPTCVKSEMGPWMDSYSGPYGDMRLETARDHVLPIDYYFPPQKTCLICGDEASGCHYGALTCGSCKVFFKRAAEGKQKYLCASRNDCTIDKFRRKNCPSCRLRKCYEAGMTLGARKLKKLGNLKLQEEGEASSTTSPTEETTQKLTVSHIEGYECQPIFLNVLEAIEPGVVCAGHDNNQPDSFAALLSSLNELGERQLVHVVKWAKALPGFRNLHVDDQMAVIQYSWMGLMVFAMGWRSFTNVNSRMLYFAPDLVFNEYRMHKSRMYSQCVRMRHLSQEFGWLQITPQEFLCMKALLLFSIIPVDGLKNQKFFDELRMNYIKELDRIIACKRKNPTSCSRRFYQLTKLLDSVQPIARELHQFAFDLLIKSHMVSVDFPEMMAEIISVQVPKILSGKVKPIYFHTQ
Kind of assay: PSA-luciferase reporter assay in LNCaP cells with DHT. The assay is classed as cell-based. The following applies: for IC50: LNCaP cells, 3 nM DHT. On the procedure: (§2) Cells were transfected with two reporter plasmids, a PSA-luciferase construct (androgen responsive), and an SV40-renilla luciferase construct as an internal control. The following day, the cells were split and drugs added in the presence of 3 nM DHT. Luciferase production was measured the following day (Dual luciferase assay kit, Promega).
(§3) Synergism can be defined as a combination index of less than one, using the non-exclusive assumption described by Chou et al. (Chou, T. C. and P. Talalay, Quantitative analysis of dose-effect relationships: the combined effects of multiple drugs or enzyme inhibitors. Adv Enzyme Regul, 1984. 22: p. 27-55).

Assay [4] has as its target T2, endogenous wild-type AR, LAPC4 cells (Homo sapiens, UniProt P10275).
T2 construct: that each express endogenous AR; endogenous in cells; host or cells: LAPC4
T2 sequence (P10275 1-920): T1 sequence (P10275 1-920 T878A) with A878T
As to the kind of experiment: PSA-luciferase reporter assay in LAPC4 cells with DHT. Format: cell-based. Particulars: 3 nM DHT. Here is the method: as §2, §3

Take `CC(O)(CS(=O)(=O)c1ccc(F)cc1)C(=O)Nc1ccc(C#N)c(C(F)(F)F)c1` (stereo not shown) [BiC, bicalutamide]: the “Reduction of prostate weight” value with prostate glands of mice came out at 35%.

In the case of `C[C@]12CCC(=O)C[C@@H]1CC[C@@H]1[C@@H]2CC[C@]2(C)[C@@H](O)CC[C@@H]12` [DHT, dihydrotestosterone], in assay [1], the “FKBP51 transcription (normalized to RPL19)” value was found to be 21.4; the “KLK3 transcription (normalized to RPL19)” value worked out at 1.97; the “MMP16 transcription (normalized to RPL19), androgen-repressed gene” value worked out at 0.71; the “Nkx3.1 transcription (normalized to RPL19)” value came to 1.08. Besides, in assay [1], the “RDC1 transcription (normalized to RPL19), androgen-repressed gene” value amounted to 0.63 and the “TMPRSS2 transcription (normalized to RPL19)” value stood at 1.13. In addition, in assay [2], the “FKBP51 transcription (normalized to RPL19)” value is 2.15; the “KLK3 transcription (normalized to RPL19)” value was found to be 1.89; the “MMP16 transcription (normalized to RPL19), androgen-repressed gene” value was 0.61; the “Nkx3.1 transcription (normalized to RPL19)” value is reported as 2.00. Further, in assay [2], the “RDC1 transcription (normalized to RPL19), androgen-repressed gene” value was determined as 0.66 and the “TMPRSS2 transcription (normalized to RPL19)” value is given as 3.70.

For the molecule `O=c1ccc2cc(O[C@@H]3O[C@H](CO)[C@@H](O)[C@H](O)[C@H]3O)c(O)cc2o1` [Esculin], the figures for the IC50 in assay [3] and in assay [4] were 62200 nM and 831 nM, respectively.

Consider `COc1ccc2c3c([nH]c2c1)C(C)=NCC3` [Harmaline], for which, in assay [3], the IC50 amounted to 1190 nM.

In the case of `COc1ccc2c(c1)[nH]c1c(C)nccc12` [Harmine], the results for the IC50 in assay [3] and in assay [4] were 1560 nM and 80 nM, respectively.

Regarding `CC(C)(O)C(=O)Nc1ccc([N+](=O)[O-])c(C(F)(F)F)c1` [OH-F, hydroxy-flutamide, reference compound], the “Mode of antagonism: effect on DHT dose-response of PSA-luciferase” value in assay [3] (LNCaP, DHT titrated, moderate dose of each inhibitor) was “DHT overcame the inhibitory effect; also recorded: consistent with a competitive antagonist”.

For the molecule `COc1cc2ccc(=O)oc2cc1O` [Scopoletin], the IC50 in assay [3] is 604000 nM; in assay [4], 1380 nM.

Turning to Harman, in assay [3], the IC50 was found to be 380 nM.
